Experimental data taken from PubChem BioAssay (NCI).
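All cell lines were grown in 96-well plates and treated with compound for 48 hours. The concentration for 50% growth inhibition is given as GI50. TGI denotes the concentration required for complete inhibition of growth.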

What was measured:
Assay in all cases: NCI-60 cell line screen, 48 h
RXF 393 renal = system: RXF 393 renal
TK-10 renal = system: TK-10 renal
A549 NSCLC = system: A549 NSCLC
U251 CNS = system: U251 CNS
HCC-2998 colon = system: HCC-2998 colon
HCT-15 colon = system: HCT-15 colon
RPMI-8226 leukemia = system: RPMI-8226 leukemia
KM12 colon = system: KM12 colon
OVCAR-4 ovarian = system: OVCAR-4 ovarian
786-0 renal = system: 786-0 renal
MDA-N = system: MDA-N

SMILES	GI50 (RXF 393 renal) [µM]	TGI (RXF 393 renal) [µM]	GI50 (TK-10 renal) [µM]	TGI (TK-10 renal) [µM]	GI50 (A549 NSCLC) [µM]	TGI (A549 NSCLC) [µM]	GI50 (U251 CNS) [µM]	TGI (U251 CNS) [µM]	GI50 (HCC-2998 colon) [µM]	TGI (HCC-2998 colon) [µM]	GI50 (HCT-15 colon) [µM]	TGI (HCT-15 colon) [µM]	GI50 (RPMI-8226 leukemia) [µM]	TGI (RPMI-8226 leukemia) [µM]	GI50 (KM12 colon) [µM]	TGI (KM12 colon) [µM]	GI50 (OVCAR-4 ovarian) [µM]	TGI (OVCAR-4 ovarian) [µM]	TGI (786-0 renal) [µM]	TGI (MDA-N) [µM]
O=C(Nc1cccc(-n2ccc3c(NC(=O)c4ccccc4)ncnc32)c1)Nc1ccc(Cl)c(C(F)(F)F)c1	1.68	6.66	2.14	7.75	2.11	7.35	2.09	8.39	4.2	14.9	2.51	10.2	1.02	2.8	1.95	8.16	2.36	8.18		
C[C@]12CC[C@H]3[C@@H](CC=C4C[C@@H](O)CC[C@@]43C)[C@@H]1C/C(=C\c1cccnc1)[C@@H]2O		80.2		66.8		> 100		28.7				> 100		> 100		> 100		58.9	96	> 100
CN(CCN)[C@H](CSSC[C@@H](c1ccccc1O)N(C)CCN)c1ccccc1O		43.7		30.7		23.9		> 47.8		25.6		18.6		43.2		28.2		34	32.6	24.6
COc1cc2c(c(OC)c1OC)C(=O)c1c(O)cc(C)c(OC)c1C2=O				> 100		> 100		> 100		> 100		> 100		> 100		> 100		> 100	> 100	> 100
Clc1cc(N/N=C(\c2ccccc2)c2ccccn2)ncn1		> 100		> 100		> 100		> 100		> 100				1.92		> 100		> 100		> 100
CC(C)=CCC[C@@H](C)C1=C(O)C(N[C@H](C)c2ccccc2)=C(C)C(=O)C1=O		25		26.3		14.7		> 100		31.3		> 63.2		22.2		> 46		> 60.1	20.7	44.2
COC(=O)c1ccccc1CC1Cc2c(C)ccc(C)c2C1=O (stereo not drawn)		51		71.2		> 100		> 100		> 100		> 100				76.1		> 100	> 100	
ClC1=NSSC1(Cl)Cl		> 100				> 100		> 100		> 100		60		56		> 100		> 100	59.3	62.1
CC1=NN(c2nc(N)nc(CO)n2)C(C)(C)C1		> 100		> 100		> 100		> 100		> 100		> 100		> 100		> 100		> 100	> 100	
CO[C@@]12C[C@H](CNC(=O)c3ccc[nH]3)O[C@@H]1NC(=O)N2				> 100		> 100		> 100		> 100		> 100		> 100		> 100		> 100	> 100	
CC(=O)Oc1ccc2cc(Oc3cc(Cl)c(Cl)cc3Cl)c(=O)oc2c1		31.5		74.5		40.2		32.5		30.8		26.3				25.6		> 100	29	30.6
O=C(C[N+]12CN3CN(CN(C3)C1)C2)c1ccc(-c2ccccc2)cc1		37.7		47.3		> 100		32.2		28.9		86.3				90.3		> 100	45.9	42.8
CCCCCCCCCCCC1N=C(N)N=C(N)N1c1cccc(Br)c1 (stereo not drawn)			1.56	2.94			0.631	1.98	1.16	2.42	5.2	26.3	1.68	4.21						
COC1OC2COC(=O)c3cc(O)c(O)c(O)c3-c3c(cc(O)c(O)c3O)C(=O)OC2C(O)C1O (stereo not drawn)		> 100		> 100		> 100		> 100				> 100		> 100		> 100		> 100	> 100	59.2
CC(C)c1cc(=O)[nH]c2cc(N)ccc12		> 100				> 100		> 100		> 100		> 100		> 100		> 100		> 100	> 100	> 100
CNC(=O)[C@H](Cc1ccccc1)NC(=O)N(CCC#N)CCN(C(=O)N[C@@H](Cc1ccccc1)C(=O)OC)c1ccccc1		> 100		> 100		> 100		> 100				> 100		> 100		> 100		> 100	> 100	> 100
Brc1ccc2[nH]c3c(C4=NCCC4)nccc3c2c1		71.2				> 100		> 38.8		39.1		> 69.2		> 36		> 100		> 87.7		
CC1OC(OC2C(O)CC(OC3C(O)CC(OC4CCC5(C)C(CCC6C5CCC5(C)C(C7=CC(=O)OC7)C(O)CC65O)C4)OC3C)OC2C)CC(O)C1O (stereo not drawn)		0.299		0.787		0.0706		1.31		14.6		1.58		1.52						1.11
COc1cccc(NC(=O)CC(=O)NN)c1		> 100		> 100		> 100		> 100				> 100		> 100		> 100		> 100	> 100	> 100
O=C(NNC(=O)c1ccco1)c1ccco1		> 100		> 100		> 100		> 100				> 100		> 100		> 100		> 100	> 100	> 100
